Where only a bound is given, the exact number is not on record here.

In assay [1] the test system is β-catenin/Tcf-4. In words: cells. Type of assay: cell-based. The settings on record: Homo sapiens, 24 hours of incubation with compound, ratio Firefly/Renilla luciferase. The gist of the method:
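SW480-derived lines with integrated reporters (Tcf-4-driven firefly luciferase; SV40 firefly as specificity control; SV40 Renilla for cell number/toxicity), treated 24 hours with titrated compounds, final 0.316% DMSO. Dual-luciferase read-out; firefly/Renilla ratio as % of control, duplicate plates, IC50 (nM) from curve fit.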

Assay [2] concerns SV40-Luc. Kind of assay: SV40-Luc control luciferase reporter assay, SV 5A8 cell line (SV40-Luc and SV40-R-Luc), control for non-specific inhibitors. It is filed as cell-based, human. Particulars: Homo sapiens, SV5A8, 24 h, SV 5A8 cells derived from SW480; 24 hours of incubation with compound; ratio Firefly/Renilla luciferase. A digest of the protocol: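 Read-out is the firefly-to-Renilla luminescence ratio, expressed as % of control and averaged over duplicate plates, from which IC50s were fitted. Renilla under SV40 normalises for cell number and toxicity. SW480-derived lines carried integrated Tcf-4- or SV40-driven firefly reporters; compound exposure lasted 24 h.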
In general terms: A reporter such as luciferase makes a cellular process visible.

The mark [3] stands for this setting: SW480, 24 h, Tcf 33.13 cells derived from SW480.
Where [4] appears, read: Tcf22C11, 24 h, Tcf 22C11 cells derived from SW480.

Consider `COC(=O)c1ccc2nc(N(C)C)nc(NCc3ccc(NC(=O)c4ccc(F)cc4)cc3)c2c1` [Example 70, methyl 2-(dimethylamino)-4-({4-[(4-fluorobenzoyl)amino]benzyl}amino)quinazoline-6-carboxylate], for which the IC50 – broadly, the point on the concentration scale where inhibition reaches its midpoint – in assay [1] (setting [3]) was 1480 nM; in assay [1] (setting [4]), 2140 nM; in assay [2], above 10600 nM.
Taken in the same sequence, the figures for `CN(C)c1nc(NCc2ccc(NC(=O)c3ccc(F)cc3)cc2)c2cc(CO)ccc2n1` [Example 71, N-[4-({[2-(dimethylamino)-6-(hydroxymethyl)quinazolin-4-yl]amino}methyl)phenyl]-4-fluorobenzamide] were 2340 nM, 2990 nM and above 11200 nM.
With `CN(C)c1nc(NCc2ccc(NC(=O)c3ccc(Cl)nc3)cc2)c2cc(I)ccc2n1` [Example 72, 6-chloro-N-[4-({[2-(dimethylamino)-6-iodoquinazolin-4-yl]amino}methyl)phenyl]nicotinamide], the IC50 was 456 nM in assay [1] (setting [3]), 534 nM in assay [1] (setting [4]) and above 4470 nM in assay [2].
For `C=Cc1ccc2nc(N(C)C)nc(NCc3ccc(NC(=O)c4ccc(Cl)nc4)cc3)c2c1` [Example 73, 6-chloro-N-[4-({[2-(dimethylamino)-6-vinylquinazolin-4-yl]amino}methyl)phenyl]nicotinamide], in that order: 194 nM, 223 nM and above 681 nM.
For the compound `CN(C)c1nc(NCc2ccc(NC(=O)C3CCN(Cc4ccccc4)CC3)cc2)c2cc(I)ccc2n1` [Example 74, 1-benzyl-N-[4-({[2-(dimethylamino)-6-iodoquinazolin-4-yl]amino}methyl)phenyl]piperidine-4-carboxamide], the IC50 in assay [1] (setting [3]) was 1380 nM; in assay [1] (setting [4]), 950 nM; in assay [2] it was above 8060 nM.
Taken in the same sequence, the figures for `C=Cc1ccc2nc(N(C)C)nc(NCc3ccc(NC(=O)C4CCN(Cc5ccccc5)CC4)cc3)c2c1` [Example 75, 1-benzyl-N-[4-({[2-(dimethylamino)-6-vinylquinazolin-4-yl]amino}methyl)phenyl]-piperidine-4-carboxamide] were 287 nM, 437 nM and above 4490 nM.
For `Cc1cccc2c(NCc3ccc(NC(=O)C4CCN(Cc5ccccc5)CC4)cc3)nc(N(C)C)nc12` [Example 76, 1-benzyl-N-[4-({[2-(dimethylamino)-8-methylquinazolin-4-yl]amino}methyl)phenyl]piperidine-4-carboxamide], in that order: 2150 nM, 1560 nM and above 9170 nM.
Regarding `Cc1ccc2nc(N3CCCC3)nc(NCc3ccc(NC(=O)C4CCN(Cc5ccccc5)CC4)cc3)c2c1` [Example 77, 1-benzyl-N-(4-{[(6-methyl-2-pyrrolidin-1-ylquinazolin-4-yl)amino]methyl}phenyl)piperidine-4-carboxamide], the IC50 in assay [1] (setting [3]) is 847 nM; in assay [1] (setting [4]), 2260 nM; in assay [2] it was above 8230 nM.
On to `Cc1ccc2nc(N3C[C@@H](C)N[C@@H](C)C3)nc(NCc3ccc(NC(=O)C4CCN(Cc5ccccc5)CC4)cc3)c2c1` [Example 78, 1-benzyl-N-{4-[({2-[(3R,5S)-3,5-dimethylpiperazin-1-yl]-6-methylquinazolin-4-yl}amino)methyl]phenyl}piperidine-4-carboxamide], for which the IC50 is 955 nM in assay [1] (setting [3]), 1390 nM in assay [1] (setting [4]) and above 17300 nM in assay [2].
In the case of `Cc1ccc2nc(N3CCN(c4ccccn4)CC3)nc(NCc3ccc(NC(=O)C4CCN(Cc5ccccc5)CC4)cc3)c2c1` [Example 79, 1-benzyl-N-[4-({[6-methyl-2-(4-pyridin-2-ylpiperazin-1-yl)quinazolin-4-yl]amino}methyl)phenyl]piperidine-4-carboxamide], the IC50 in assay [1] (setting [3]) is 1680 nM; in assay [1] (setting [4]) it was 2350 nM; in assay [2] it was above 16000 nM.
Turning to `Cc1ccc2nc(N3CC=CC3)nc(NCc3ccc(NC(=O)C4CCN(Cc5ccccc5)CC4)cc3)c2c1` [Example 80, 1-benzyl-N-[4-({[2-(2,5-dihydro-1H-pyrrol-1-yl)-6-methylquinazolin-4-yl]amino}methyl)phenyl]piperidine-4-carboxamide], the figures for the IC50 in assay [1] (setting [3]), in assay [1] (setting [4]) and in assay [2] were 597 nM, 761 nM and above 9390 nM, respectively.
For `Cc1ccc2nc(NCc3ccco3)nc(NCc3ccc(NC(=O)C4CCN(Cc5ccccc5)CC4)cc3)c2c1` [Example 81, 1-benzyl-N-{4-[({2-[(2-furylmethyl)amino]-6-methylquinazolin-4-yl}amino)methyl]phenyl}piperidine-4-carboxamide], in that order: above 8920 nM, above 8920 nM and above 17800 nM.
For `Cc1ccc2nc(N3CCN(c4ncccn4)CC3)nc(NCc3ccc(NC(=O)C4CCN(Cc5ccccc5)CC4)cc3)c2c1` [Example 82, 1-benzyl-N-[4-({[6-methyl-2-(4-pyrimidin-2-ylpiperazin-1-yl)quinazolin-4-yl]amino}methyl)phenyl]piperidine-4-carboxamide], in that order: 891 nM, 872 nM and above 7960 nM.
Taken in the same sequence, the figures for `Cc1ccc2nc(N3CCC(N4CCCC4)CC3)nc(NCc3ccc(NC(=O)C4CCN(Cc5ccccc5)CC4)cc3)c2c1` [Example 83, 1-benzyl-N-[4-({[6-methyl-2-(4-pyrrolidin-1-ylpiperidin-1-yl)quinazolin-4-yl]amino}methyl)phenyl]piperidine-4-carboxamide] were 425 nM, 511 nM and above 4050 nM.
As to `Cc1ccc2nc(N3CCC3)nc(NCc3ccc(NC(=O)C4CCN(Cc5ccccc5)CC4)cc3)c2c1` [Example 84, N-(4-{[(2-azetidin-1-yl-6-methylquinazolin-4-yl)amino]methyl}phenyl)-1-benzylpiperidine-4-carboxamide], the IC50 in assay [1] (setting [3]) was 423 nM; in assay [1] (setting [4]), 434 nM; in assay [2], above 9310 nM.
Taken in the same sequence, the figures for `Cc1ccc2nc(N3CCN[C@H](C)C3)nc(NCc3ccc(NC(=O)C4CCN(Cc5ccccc5)CC4)cc3)c2c1` [Example 85, 1-benzyl-N-{4-[({6-methyl-2-[(3R)-3-methylpiperazin-1-yl]quinazolin-4-yl}amino)methyl]phenyl}piperidine-4-carboxamide] were 530 nM, 771 nM and above 2220 nM.
For `CN(C)c1nc(NCc2ccc(NC(=O)c3ccc(F)cc3)cc2)c2ccc(CN)cc2n1` [Example 90, N-[4-({[7-(aminomethyl)-2-(dimethylamino)quinazolin-4-yl]amino}methyl)phenyl]-4-fluorobenzamide], in that order: 1300 nM, 2860 nM and above 4830 nM.
For `C/C=C/c1ccc2c(NCc3ccc(NC(=O)c4ccc(F)cc4)cc3)nc(N(C)C)nc2c1` [Example 96, N-{4-[({2-(dimethylamino)-7-[(1E)-prop-1-en-1-yl]quinazolin-4-yl}amino)methyl]phenyl}-4-fluorobenzamide], in that order: 511 nM, 497 nM and above 2540 nM.
Consider `C/C=C\c1ccc2c(NCc3ccc(NC(=O)c4ccc(F)cc4)cc3)nc(N(C)C)nc2c1` [Example 97, N-{4-[({2-(dimethylamino)-7-[(1Z)-prop-1-en-1-yl]quinazolin-4-yl}amino)methyl]phenyl}-4-fluorobenzamide], for which the results for the IC50 in assay [1] (setting [3]), in assay [1] (setting [4]) and in assay [2] were 599 nM, 499 nM and above 2560 nM, respectively.

(Values after patent publication US20090004185A1, “AMINO-SUBSTITUTED QUINAZOLINE DERIVATIVES AS INHIBITORS OF BETA-CATENIN/TCF-4 PATHWAY AND CANCER TREATMENT AGENTS” (WYETH, priority 2007, published 2009).)
